Assay results published in patent US11147272B2, “Pyridone compounds and agricultural and horticultural fungicides comprising the same as active ingredients” (MITSUI CHEMICALS AGRO, INC., priority 2017, dated 2021).

Columns and labels:
Puccinia recondita = test: Test Example E: Brown rust on wheat; format: in vivo; conditions: Brown rust on wheat; class of control value
Alternaia brassicicola = test: Test Example C: Alternaria sooty spot on cabbage; format: in vivo; conditions: Alternaria sooty spot on cabbage; class of control value
From the text: Seeds of a test plant (cabbage variety: Shikidori) were planted and cultivated until the cotyledons extended.
<Control Value> Control value=100{1−(n/3)}

Plasmopara viticola = test: Test Example G: Downy mildew on vine; conditions: Downy mildew on vine (Neomuscat); 250 ppm spray, 2.5 ml/pot; assessed 7 to 10 days after inoculation
Botrytis cinerea = test: Test Example B: Gray mold on tomato; conditions: Gray mold on tomato; class of control value
Phytophthora infestans = test: whole plant or invertebrate; format: in vivo; conditions: Late blight on tomato; class of control value
[1] = system: Blumeria graminis f. sp. hordei; test: Test Example D: Powdery mildew on barley; conditions: Powdery mildew on barley; class of control value
[2] = system: Colletotrichum orbiculare; test: Test Example H: Anthracnose on cucumber; conditions: Anthracnose on cucumber (Sagami Hanjiro); 250 ppm spray, 2.5 ml/pot; assessed 6 to 10 days after inoculation
Magnaporthe grisea = test: whole plant or invertebrate; format: in vivo; conditions: Blast on rice; class of control value

Compound: CCN(Cc1cc(Cl)c(=O)n(CC)c1-c1c(F)cc(OC)cc1F)OC [compound 152]
- Test E control value class (Puccinia recondita): H (more than 50% control value)
- Test C control value class (Alternaia brassicicola): H (more than 50% control value)
- Test G control value class (Plasmopara viticola): H (more than 50% control value)
- Test B control value class (Botrytis cinerea): H (more than 50% control value)
- Test F control value class (Phytophthora infestans): L (50% or less control value)
- Test D control value class [1]: H (more than 50% control value)
- Test H control value class [2]: H (more than 50% control value)
- Test A control value class (Magnaporthe grisea): H (more than 50% control value)

Compound: CCn1c(-c2c(F)cc(OC)cc2F)c(C(C)(O)CC(C)C)cc(Cl)c1=O (centres unmarked) [compound 153]
- Test E control value class (Puccinia recondita): H (more than 50% control value)
- Test C control value class (Alternaia brassicicola): H (more than 50% control value)
- Test G control value class (Plasmopara viticola): H (more than 50% control value)
- Test B control value class (Botrytis cinerea): H (more than 50% control value)
- Test F control value class (Phytophthora infestans): L (50% or less control value)
- Test D control value class [1]: H (more than 50% control value)
- Test H control value class [2]: H (more than 50% control value)
- Test A control value class (Magnaporthe grisea): L (50% or less control value)

Compound: CCn1c(-c2c(F)cc(F)cc2F)c(C(C)(O)CC(C)C)cc(Cl)c1=O (centres unmarked) [compound 154]
- Test E control value class (Puccinia recondita): H (more than 50% control value)
- Test C control value class (Alternaia brassicicola): H (more than 50% control value)
- Test G control value class (Plasmopara viticola): H (more than 50% control value)
- Test B control value class (Botrytis cinerea): H (more than 50% control value)
- Test F control value class (Phytophthora infestans): L (50% or less control value)
- Test D control value class [1]: H (more than 50% control value)
- Test H control value class [2]: H (more than 50% control value)
- Test A control value class (Magnaporthe grisea): H (more than 50% control value)

Compound: CC(C)Cc1cc(Cl)c(=O)n(C)c1-c1ccc(F)cc1 [compound 155]
- Test E control value class (Puccinia recondita): H (more than 50% control value)
- Test C control value class (Alternaia brassicicola): H (more than 50% control value)
- Test G control value class (Plasmopara viticola): H (more than 50% control value)
- Test B control value class (Botrytis cinerea): H (more than 50% control value)
- Test F control value class (Phytophthora infestans): L (50% or less control value)
- Test D control value class [1]: H (more than 50% control value)
- Test H control value class [2]: L (50% or less control value)
- Test A control value class (Magnaporthe grisea): L (50% or less control value)

Compound: CC(C)Cc1cc(Br)c(=O)n(C)c1-c1ccc(F)cc1 [compound 156]
- Test E control value class (Puccinia recondita): H (more than 50% control value)
- Test C control value class (Alternaia brassicicola): H (more than 50% control value)
- Test G control value class (Plasmopara viticola): L (50% or less control value)
- Test B control value class (Botrytis cinerea): H (more than 50% control value)
- Test F control value class (Phytophthora infestans): L (50% or less control value)
- Test D control value class [1]: H (more than 50% control value)
- Test H control value class [2]: L (50% or less control value)
- Test A control value class (Magnaporthe grisea): H (more than 50% control value)

Compound: CCn1c(-c2ccc(Cl)cc2F)c(CC(C)C)ccc1=O [compound 157]
- Test E control value class (Puccinia recondita): H (more than 50% control value)
- Test C control value class (Alternaia brassicicola): H (more than 50% control value)
- Test G control value class (Plasmopara viticola): H (more than 50% control value)
- Test B control value class (Botrytis cinerea): H (more than 50% control value)
- Test F control value class (Phytophthora infestans): L (50% or less control value)
- Test D control value class [1]: H (more than 50% control value)
- Test H control value class [2]: L (50% or less control value)
- Test A control value class (Magnaporthe grisea): H (more than 50% control value)

Compound: CCn1c(-c2ccc(Cl)cc2F)c(CC(C)C)cc(Cl)c1=O [compound 158]
- Test E control value class (Puccinia recondita): H (more than 50% control value)
- Test C control value class (Alternaia brassicicola): H (more than 50% control value)
- Test G control value class (Plasmopara viticola): H (more than 50% control value)
- Test B control value class (Botrytis cinerea): H (more than 50% control value)
- Test F control value class (Phytophthora infestans): L (50% or less control value)
- Test D control value class [1]: H (more than 50% control value)
- Test H control value class [2]: H (more than 50% control value)
- Test A control value class (Magnaporthe grisea): H (more than 50% control value)

Compound: CCn1c(-c2ccc(Cl)cc2F)c(CC(C)C)cc(Br)c1=O [compound 159]
- Test E control value class (Puccinia recondita): H (more than 50% control value)
- Test C control value class (Alternaia brassicicola): H (more than 50% control value)
- Test G control value class (Plasmopara viticola): H (more than 50% control value)
- Test B control value class (Botrytis cinerea): H (more than 50% control value)
- Test F control value class (Phytophthora infestans): L (50% or less control value)
- Test D control value class [1]: H (more than 50% control value)
- Test H control value class [2]: H (more than 50% control value)
- Test A control value class (Magnaporthe grisea): H (more than 50% control value)

Compound: CCn1c(-c2c(F)cc(F)cc2F)c(C(=O)CC(C)C)cc(Cl)c1=O [compound 160]
- Test E control value class (Puccinia recondita): H (more than 50% control value)
- Test C control value class (Alternaia brassicicola): H (more than 50% control value)
- Test G control value class (Plasmopara viticola): H (more than 50% control value)
- Test B control value class (Botrytis cinerea): H (more than 50% control value)
- Test F control value class (Phytophthora infestans): L (50% or less control value)
- Test D control value class [1]: H (more than 50% control value)
- Test H control value class [2]: H (more than 50% control value)
- Test A control value class (Magnaporthe grisea): L (50% or less control value)

Compound: CCOC(C)(C)c1cc(Cl)c(=O)n(CC)c1-c1c(F)cc(F)cc1F [compound 161]
- Test E control value class (Puccinia recondita): H (more than 50% control value)
- Test C control value class (Alternaia brassicicola): H (more than 50% control value)
- Test G control value class (Plasmopara viticola): H (more than 50% control value)
- Test B control value class (Botrytis cinerea): H (more than 50% control value)
- Test F control value class (Phytophthora infestans): L (50% or less control value)
- Test D control value class [1]: H (more than 50% control value)
- Test H control value class [2]: H (more than 50% control value)
- Test A control value class (Magnaporthe grisea): H (more than 50% control value)

Compound: CCOC(C)(C)c1cc(Cl)c(=O)n(CC)c1-c1c(F)cc(OC)cc1F [compound 162]
- Test E control value class (Puccinia recondita): H (more than 50% control value)
- Test C control value class (Alternaia brassicicola): H (more than 50% control value)
- Test G control value class (Plasmopara viticola): H (more than 50% control value)
- Test B control value class (Botrytis cinerea): H (more than 50% control value)
- Test F control value class (Phytophthora infestans): L (50% or less control value)
- Test D control value class [1]: H (more than 50% control value)
- Test H control value class [2]: H (more than 50% control value)
- Test A control value class (Magnaporthe grisea): H (more than 50% control value)

Compound: CCn1c(-c2c(F)cc(F)cc2F)c(CC(C)(C)C)cc(Cl)c1=O [compound 169]
- Test E control value class (Puccinia recondita): H (more than 50% control value)
- Test C control value class (Alternaia brassicicola): H (more than 50% control value)
- Test G control value class (Plasmopara viticola): H (more than 50% control value)
- Test B control value class (Botrytis cinerea): H (more than 50% control value)
- Test F control value class (Phytophthora infestans): H (more than 50% control value)
- Test D control value class [1]: H (more than 50% control value)
- Test H control value class [2]: H (more than 50% control value)
- Test A control value class (Magnaporthe grisea): H (more than 50% control value)

Compound: CCn1c(-c2c(F)cc(F)cc2F)c(C(=O)C(C)(C)C)cc(Cl)c1=O [compound 173]
- Test E control value class (Puccinia recondita): H (more than 50% control value)
- Test C control value class (Alternaia brassicicola): H (more than 50% control value)
- Test G control value class (Plasmopara viticola): L (50% or less control value)
- Test B control value class (Botrytis cinerea): H (more than 50% control value)
- Test F control value class (Phytophthora infestans): L (50% or less control value)
- Test D control value class [1]: H (more than 50% control value)
- Test H control value class [2]: H (more than 50% control value)
- Test A control value class (Magnaporthe grisea): L (50% or less control value)

Compound: CCn1c(-c2ccc(Br)cc2)c(CC(C)C)ccc1=O [compound 175]
- Test E control value class (Puccinia recondita): H (more than 50% control value)
- Test C control value class (Alternaia brassicicola): L (50% or less control value)
- Test G control value class (Plasmopara viticola): L (50% or less control value)
- Test B control value class (Botrytis cinerea): H (more than 50% control value)
- Test F control value class (Phytophthora infestans): L (50% or less control value)
- Test D control value class [1]: H (more than 50% control value)
- Test H control value class [2]: L (50% or less control value)
- Test A control value class (Magnaporthe grisea): L (50% or less control value)

Compound: CCn1c(-c2ccc(F)cc2Cl)c(C2CCCCC2)ccc1=O [compound 176]
- Test E control value class (Puccinia recondita): H (more than 50% control value)
- Test C control value class (Alternaia brassicicola): H (more than 50% control value)
- Test G control value class (Plasmopara viticola): L (50% or less control value)
- Test B control value class (Botrytis cinerea): H (more than 50% control value)
- Test F control value class (Phytophthora infestans): H (more than 50% control value)
- Test D control value class [1]: H (more than 50% control value)
- Test H control value class [2]: L (50% or less control value)
- Test A control value class (Magnaporthe grisea): H (more than 50% control value)

Compound: CCn1c(-c2ccc(Br)cc2)c(CC(C)C)cc(Cl)c1=O [compound 177]
- Test E control value class (Puccinia recondita): H (more than 50% control value)
- Test C control value class (Alternaia brassicicola): H (more than 50% control value)
- Test G control value class (Plasmopara viticola): L (50% or less control value)
- Test B control value class (Botrytis cinerea): H (more than 50% control value)
- Test F control value class (Phytophthora infestans): L (50% or less control value)
- Test D control value class [1]: L (50% or less control value)
- Test H control value class [2]: L (50% or less control value)
- Test A control value class (Magnaporthe grisea): L (50% or less control value)
